Experimental data taken from PubChem BioAssay (NCI).
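1) Cells in 96-well plates. 2) Compound, 48 h, 5 concentrations. 3) Linear interpolation between surrounding doses. 4) Unreached endpoint = highest concentration. TGI: concentration producing complete growth inhibition.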

Key:
Assay in all cases: NCI-60 cell line screen, 48 h
HOP-62 NSCLC = test system: HOP-62 NSCLC
RXF 393 renal = test system: RXF 393 renal
UACC-62 melanoma = test system: UACC-62 melanoma
UACC-257 melanoma = test system: UACC-257 melanoma
NCI/ADR-RES ovarian = test system: NCI/ADR-RES ovarian
SK-MEL-28 melanoma = test system: SK-MEL-28 melanoma
IGROV1 ovarian = test system: IGROV1 ovarian
HS 578T breast = test system: HS 578T breast
SF-539 CNS = test system: SF-539 CNS
HCT-116 colon = test system: HCT-116 colon
BT-549 breast = test system: BT-549 breast
MALME-3M melanoma = test system: MALME-3M melanoma
DU-145 prostate = test system: DU-145 prostate
SNB-19 CNS = test system: SNB-19 CNS
786-0 renal = test system: 786-0 renal
NCI-H226 lung = test system: NCI-H226 lung
SK-MEL-5 melanoma = test system: SK-MEL-5 melanoma
A549 NSCLC = test system: A549 NSCLC

SMILES	TGI (HOP-62 NSCLC) [µM]	TGI (RXF 393 renal) [µM]	TGI (UACC-62 melanoma) [µM]	TGI (UACC-257 melanoma) [µM]	TGI (NCI/ADR-RES ovarian) [µM]	TGI (SK-MEL-28 melanoma) [µM]	TGI (IGROV1 ovarian) [µM]	TGI (HS 578T breast) [µM]	TGI (SF-539 CNS) [µM]	TGI (HCT-116 colon) [µM]	TGI (BT-549 breast) [µM]	TGI (MALME-3M melanoma) [µM]	TGI (DU-145 prostate) [µM]	TGI (SNB-19 CNS) [µM]	TGI (786-0 renal) [µM]	TGI (NCI-H226 lung) [µM]	TGI (SK-MEL-5 melanoma) [µM]	TGI (A549 NSCLC) [µM]
CC(=O)Nc1ccc2c3c(cc(O)c2c1)N(C(=O)CCCCCC(=O)Nc1ccc2c4c(cc(O)c2c1)N(C(=O)OC(C)(C)C)CC4CCl)CC3CCl (stereo unspecified)	12	2.69	3.87	> 28.6	> 100	> 63.2	28.5	> 26.9	13.1	14.4	10.9	8.98	3.12	> 35	10.1	9.56	2.98	> 55
O=C(CSCC(=O)N/N=C/c1ccncc1)N/N=C/c1ccncc1	> 100	> 100	> 100	> 100	> 100	> 100	> 100	> 100	> 100	> 100	> 100	> 100	> 100	> 100	> 100	> 100	> 100	> 100
Cc1c(C=C(C#N)C#N)c(=O)n(C)c(=O)n1C	> 100	> 100	> 100	> 100	> 100	> 100	> 100	> 100	> 100	> 100	> 100	> 100	> 100	> 100	> 100	> 100	> 100	> 100
Cc1cn(C2CC(O)C(Cn3nncc3Cn3ccc(=O)[nH]c3=O)O2)c(=O)[nH]c1=O (stereo unspecified)	> 100	> 100	> 100	> 100	> 100	> 100	> 100	> 100	> 100	> 100	> 100	> 100	> 100	> 100	> 100	> 100	> 100	> 100
Cc1ccc2c(c1)C/C(=C\c1ccccc1C(=O)O)C2=O	> 100	> 100	> 100	> 100	> 100	> 100	> 100	> 100	> 100	> 100	> 100	> 100	> 100	> 100	> 100	> 100	> 100	> 100
Cc1cccc2c(=O)c3c(O)cc4c(c3n(C)c12)C=CC(C)(C)O4	> 100	38	> 100	> 100	> 100	> 100	> 100	> 100	> 100	> 100	> 100	> 100	> 100	> 100	> 100	> 100	> 100	> 100
Nc1c(O)c(C(=O)O)cc2ccccc12	> 100	> 100	31.6	38.4	> 100	> 100	> 100	> 100	> 100	32.2	60.3	29.6	35.9	> 100	36.4	99.8	27.9	> 100
CC(C)(C)OC(=O)CC(NC(=O)OC(C)(C)C)C(=O)Oc1ccc([N+](=O)[O-])cc1 (stereo unspecified)	> 100	> 100	65.9	> 100	> 100	> 100	> 100	> 100	> 100	> 100	> 100	> 100	> 100	> 100	> 100	> 100	> 100	> 100
CC1(C)N=C(N)N=C(N)N1CCCCc1ccccc1	> 100	> 100	> 100	> 75.9	> 100	> 100	> 100	> 81.9	32.4	> 100	> 100	83.4	> 100	> 100	> 100	> 83	12.5	> 100
COc1cc(C2SC(N)=Nc3c2c(C)nn3C(=O)c2ccc(Cl)cc2)ccc1O (stereo unspecified)	> 10	> 10	> 10	> 10	> 10	> 10	> 10	> 10	> 10	> 10	> 10	> 10	> 10	> 10	> 10	> 10	> 10	> 10
Fc1ccc(C(OCCN2CCC3CCC(C2)N3C/C=C/c2cccnc2)c2ccc(F)cc2)cc1 (stereo unspecified)	31	19.4	25	12.3	25.7	5.38	27.1	31.7	25.2	19	26.4	15	33.1	29.6	17.8	30.3	14.9	25.4
CCOC(=O)/C=C1\C[C@H](NC(=O)OCc2ccccc2)C(=O)N1CC(=O)OCC	> 100	> 100	> 100	> 100	> 100	> 100	> 100	> 100	> 100	> 100	> 100	> 100	> 100	> 100	> 100	> 100	> 100	> 100
